Here are results for three molecules from patent publication US5834511A, “DL- DI- or tri-hydroxyphenylglycine alkyl esters for the treatment of inflammatory and allergic conditions” (Ciba Specialty Chemicals Corporation, priority 1994, dated 1998).

Like-named read-outs stand apart in the source and are kept apart here.

Assay [1] deals with T1, 5-LOX (Oryctolagus cuniculus, UniProt P12530).
T1 construct: 15-lipoxygenase from rabbit reticulocytes; from tissue; host or cells: rabbit reticulocytes
T1 sequence (P12530 2-663): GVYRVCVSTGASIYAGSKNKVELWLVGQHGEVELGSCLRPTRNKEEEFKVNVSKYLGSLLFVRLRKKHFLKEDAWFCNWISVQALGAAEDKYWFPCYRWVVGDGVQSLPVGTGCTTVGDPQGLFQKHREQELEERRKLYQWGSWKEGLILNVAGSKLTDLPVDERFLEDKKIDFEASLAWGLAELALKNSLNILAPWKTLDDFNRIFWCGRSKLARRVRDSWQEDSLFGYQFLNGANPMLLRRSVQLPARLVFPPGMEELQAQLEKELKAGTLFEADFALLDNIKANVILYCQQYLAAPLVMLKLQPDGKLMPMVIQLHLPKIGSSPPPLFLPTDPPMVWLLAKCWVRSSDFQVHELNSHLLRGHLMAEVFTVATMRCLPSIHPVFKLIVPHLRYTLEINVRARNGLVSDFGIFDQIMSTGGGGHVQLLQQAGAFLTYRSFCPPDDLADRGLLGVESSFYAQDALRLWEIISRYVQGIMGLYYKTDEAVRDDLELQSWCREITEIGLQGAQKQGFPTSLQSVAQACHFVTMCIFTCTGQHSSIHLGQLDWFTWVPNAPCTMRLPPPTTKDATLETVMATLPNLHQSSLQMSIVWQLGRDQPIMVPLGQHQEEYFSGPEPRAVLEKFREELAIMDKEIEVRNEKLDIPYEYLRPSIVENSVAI
In words: Lipoxygenase activity, oxygraphic (Table 4 column headed 5-LOX; method describes 15-lipoxygenase). It is filed as biochemical, rabbit. The procedure: Prostaglandin H synthase is prepared from the seminal vesicles of sheep (F. S. Van der Ouderaa, M. Buytenhek.: Methods Enzymol. 86, 60-68 (1982)), and 15-lipoxygenase from rabbit reticulocytes (T. Schewe, R. Wiesner, S. M. Rapoport: Methods Enzymol. 71, 430-441 (1981)). Both enzymatic activities are measured oxygraphically at 25° C.
The 15-lipoxygenase activity is measured using 265 μmol/l of potassium linoleate as substrate in 0.1 molar phosphate puffer at pH 7.4 and 0.2% sodium cholate (T. Schewe, H. Kuhn, S. M. Rapoport, in: Prostaglandins and Related Substances--A Practical Approach pp. 229-242, C. Benedetto, R. G. McDonald-Gibson, S. Nigam, T. F. Slater (Eds.); IRL Press, Oxford, Wash. (1987)). The compounds are freshly dissolved in 2-methoxyethanol and preincubated for 5 minutes with the enzyme preparation, and the reaction is started by addition of substrate.

The test system of assay [2] is carrageenan oedema. The assay is described as follows: Carrageenan oedema of the rat paw after systemic application. It is filed as in vivo, rat (Wistar). Conditions: administered simultaneously with carrageenan, paw diameter 3 hours after inducing the oedema. On the technique in general: In the carrageenan paw model, swelling and tenderness develop within hours.
Assay [3] relates to ear oedema induced by croton oil. In words: Croton oil ear oedema, topical application (antioedematous activity). It is filed as in vivo, mouse (AB). Conditions: 2×10 μl of a 5% ethanolic solution 1 hour after croton oil, 6 hours after inducing oedema. Here is the method: Antioedamatous activity The assays for determining the antioedamatous activity of the novel compounds of formulae (101) and (102) prepared in Examples 1 and 2 are carried out on male AB mice (18-22 g, 9 animals per group). The ear oedema is induced by applying 2×10 μl of croton oil (1% in acetone) to the ears of the mice. After 1 hour the novel compounds (2×10 μl of a 5% ethanolic solution of each compound) are applied. After a further 5 hours (6 hours after inducing oedema) the animals are sacrificed, and pieces of ear tissue having a diameter of 8 mm are obtained. The oedema weight is determined as the difference between the contralateral ear. The percentage inhibition is calculated from a comparison with the control animals. (Table 2).

The target in assay [4] is T2, 5-lipoxygenase (Homo sapiens, UniProt P09917).
T2 construct: 5-lipoxygenase of human polymorphonuclear leucozytes; endogenous in cells; host or cells: human polymorphonuclear leukocytes
T2 sequence (P09917 1-674): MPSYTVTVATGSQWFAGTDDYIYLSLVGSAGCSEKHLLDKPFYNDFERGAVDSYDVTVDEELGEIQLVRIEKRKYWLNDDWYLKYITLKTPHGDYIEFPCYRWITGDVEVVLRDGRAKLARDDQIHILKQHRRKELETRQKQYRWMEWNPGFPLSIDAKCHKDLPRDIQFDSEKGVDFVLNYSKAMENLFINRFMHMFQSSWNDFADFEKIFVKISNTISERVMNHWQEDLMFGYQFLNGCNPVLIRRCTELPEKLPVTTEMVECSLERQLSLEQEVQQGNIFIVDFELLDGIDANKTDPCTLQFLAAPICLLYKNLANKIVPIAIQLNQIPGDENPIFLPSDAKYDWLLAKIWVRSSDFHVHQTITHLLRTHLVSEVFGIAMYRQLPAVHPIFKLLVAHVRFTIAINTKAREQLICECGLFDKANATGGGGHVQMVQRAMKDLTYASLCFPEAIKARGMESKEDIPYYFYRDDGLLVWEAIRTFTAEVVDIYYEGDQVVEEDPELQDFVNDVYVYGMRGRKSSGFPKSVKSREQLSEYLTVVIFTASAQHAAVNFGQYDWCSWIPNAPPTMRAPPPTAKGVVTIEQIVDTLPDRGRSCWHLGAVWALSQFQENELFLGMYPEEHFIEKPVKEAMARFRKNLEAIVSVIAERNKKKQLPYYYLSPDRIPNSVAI
The assay is described as follows: Formation of 5-HETE by 5-lipoxygenase of human polymorphonuclear leucozytes. Conditions: 1-^14 C-arachidonic acid (10 μmol/l). It is filed as cell-based.

Assay [5] has as its target T3, PGH Synthase (Ovis aries, UniProt P05979).
T3 construct: prepared from the seminal vesicles of sheep; from tissue; host or cells: sheep seminal vesicles, microsomal enzyme preparation
T3 sequence (P05979 25-600): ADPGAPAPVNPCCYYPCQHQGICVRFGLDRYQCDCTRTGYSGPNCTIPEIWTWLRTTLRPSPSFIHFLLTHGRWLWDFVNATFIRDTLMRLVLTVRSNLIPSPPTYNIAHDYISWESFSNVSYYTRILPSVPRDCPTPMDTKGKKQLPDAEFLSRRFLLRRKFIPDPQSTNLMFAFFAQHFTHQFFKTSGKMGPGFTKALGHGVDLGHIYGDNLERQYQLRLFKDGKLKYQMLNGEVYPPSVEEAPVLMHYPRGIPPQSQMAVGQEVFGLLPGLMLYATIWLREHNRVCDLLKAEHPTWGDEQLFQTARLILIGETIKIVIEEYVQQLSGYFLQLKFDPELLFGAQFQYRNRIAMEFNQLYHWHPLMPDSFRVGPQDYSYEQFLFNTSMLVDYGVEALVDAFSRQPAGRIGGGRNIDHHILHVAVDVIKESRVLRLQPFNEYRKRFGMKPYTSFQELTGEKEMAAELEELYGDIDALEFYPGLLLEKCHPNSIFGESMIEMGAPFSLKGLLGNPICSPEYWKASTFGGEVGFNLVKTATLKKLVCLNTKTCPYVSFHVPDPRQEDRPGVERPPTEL
In words: Prostaglandin H synthase activity, oxygraphic. It is filed as biochemical, sheep. Conditions: 30 μmol/l arachidonic acid, pH 8.0, 25° C., 5 minutes preincubation. Here is the method:
Both enzymatic activities are measured oxygraphically at 25° C.

For assay [6], the system named is writhing reactions induced by acetic acid. In words: Acetic acid-induced writhing syndrome. In kind it is in vivo, mouse (CBA). Conditions: i.p., 5×10^-5 mol/kg, 30 minutes before inducement; recorded over 20 minutes. In general terms: Writhing tests count abdominal constrictions after an irritant is injected.
Protocol: The writhing reactions are induced by i.p. (=intraperitoneal) injection of 0.1 ml of 1% acetic acid/10 g and recorded over a period of 20 minutes after injection.
Assay [7] has as its system hydrogen peroxide formation in casein-stimulated peritoneal granulocytes of rats. The assay is described as follows: Formation of hydrogen peroxide induced by opsonated zymosan in casein-stimulated peritoneal granulocytes. In kind it is cell-based, rat. Conditions: 5×10^6 cells/ml, 30 min incubation.
[8] abbreviates: Rattus norvegicus, ip, read-out: ED50.

Usually IC50 stands for the concentration at which inhibition is half-maximal. As usually defined, the ED50 is the dose that gives a 50% effect, or the effect in half of the subjects. By Inhibition is commonly meant the share of the control response that was lost under treatment. A higher Inhibition goes with strong suppression. Regarding `CCCCCCCCOC(=O)C(N)c1cc(O)c(O)c(O)c1` (racemic) [compound of formula (102)], the IC50 came out at 250 µM in assay [1]; 1.3 µM in assay [4]; 85 µM in assay [5]; 5.3 µM in assay [7] (Rattus norvegicus, 0.5 h). The 50% effective dose (ED50) in assay [2] (setting [8]) turned out to be 80 µmol/kg. The Inhibition is 45.7% in assay [3] and 80.7% in assay [6].

For the molecule `CC(=O)Oc1ccccc1C(=O)O` [acetylsalicylic acid, reference compound], the IC50 in assay [1] (265 μmol/l potassium linoleate, pH 7.4, 25° C., 5 minutes preincubation (method of 15-lipoxygenase), read-out: 5-LOX IC50) is above 1000 µM; in assay [7], above 100 µM. For the same molecule, in assay [2] (i.p.), the ED50 is given as 15.2 10^-4 mol/kg. Moreover, the Inhibition in assay [6] was found to be 32.3%.

With `CCCCCCCCOC(=O)C(N)c1ccc(O)c(O)c1.Cl` (racemic) [compound of formula (101), DL-3,4-dihydroxyphenylglycine octyl ester hydrochloride], the IC50 came out at 3.9 µM in assay [1]; 6.9 µM in assay [4]; 110 µM in assay [5]; 2.3 µM in assay [7] (Rattus norvegicus, 0.5 h). Moreover, the ED50 in assay [2] (setting [8]) was found to be 150 µmol/kg. The results for the Inhibition in assay [3] and in assay [6] were 23.9% and 80.2%, respectively.
